“And” between values parts separate entries of the source, which are not always exact repeats. Equal entries are not always repeated. Where two headings read alike, the source gives them in different places.
What was measured:
[1] = male rat, different AA exposure studies, various methods; cited from earlier work
[2] = design: method as in Doerge at al. (2005); settings: male F344 rats, single dietary exposure ca. 100 µg AA/kg bw, n = 7, direct measurements; ref Doerge at al. (2005); cited from earlier work
[3] = In vivo dose (AUC) in human calculated from measured Hb adduct levels after AA exposure; settings: human in vivo study used (dietary AA)
Protocol: (§1) The in vivo dose or AUC of a compound in blood is the concentration integrated over time (Eq. 2).2 AUC=∫tC(t)dt A method to infer the AUC of an electrophilic compound or metabolite from measured Hb adduct levels (A) has been developed and established by our research group for quantitative monitoring of exposure in humans or for application in animal studies[1],[3]. When Hb adduct formation is measured a short time after a single acute exposure, or after incubation in vitro, AUC can be calculated using Eq. 3. This equation is based on A, and the second-order reaction rate constant (kNu) for the formation of an adduct to a nucleophilic site in Hb from the concerned electrophile.3 AUC=A/kNu
(§2) For calculating the daily AUC from a longer duration of exposure, the daily adduct level increments (a) have to be calculated considering the accumulation and elimination of adducts due to lifetime of the erythrocytes (t er). […] From continuous or subchronic exposure when the exposure time (t) is shorter than t er, the accumulated adduct level is calculated [a × t × (1 − t/2t er)][49].
In vivo dose or AUC of AA and of GA in human after intake of AA-rich food was obtained from Vikström et al.[23]. […] The measured adduct levels were used to calculate the daily adduct level increment, a, and adjusted for intake per kg bw (exposure dose 11 μg AA/kg bw). […]

[4] = cited from earlier work
[5] = In vivo dose (AUC) in rat calculated from measured Hb adduct levels after AA exposure; settings: rat in vivo study used (AA in drinking water)
Protocol: as §1, §2
For in vivo data on AUC of AA and of GA from AA exposure in rats, a study on short-term oral exposure of rats was used[24]. […] Blood samples were collected and AA- and GA-adducts to N-terminal valine in Hb were measured as described above, and recalculated to the daily increment of the adduct level. […]

[6] = cited from earlier work; remark: listed apart in the source
[7] = liver microsomes, rat (male, SD) vs. human (male); cited from earlier work
[8] = design: method as in PMID 25448046; settings: rat exposed to BD; cited from earlier work
[9] = design: method as in PMID 25448046; settings: rat, for 1 ppm·h of BD exposure; cited from earlier work
[10] = Parallelogram approach prediction of AUC-DEB in rat from BD exposure; settings: from the parallelogram approach
Protocol: The inter-species extrapolation was performed using in vitro metabolic data on enzyme kinetics and published Hb adduct data[6]. This study was initiated as the AUC of DEB (AUC-DEB), in humans exposed to BD, had not been possible to measure with available methods.
(§3) In our first application of the parallelogram approach, AUC-DEB was predicted in a case study on BD exposure. […] In the case of BD, the relatively large inter-species differences in metabolism were an advantage for testing of the approach.

[11] = design: method as in PMID 25448046; settings: occupationally BD-exposed humans; cited from earlier work
[12] = design: method as in PMID 25448046; settings: human, for 1 ppm·h of BD exposure; cited from earlier work
[13] = design: method as in PMID 25448046; settings: mouse exposed to BD; cited from earlier work
[14] = AUC-DEB in rat calculated from measured Hb adduct levels after BD exposure; type: in vivo
Description: as §3

[15] = design: method as in PMID 25448046; settings: mouse, for 1 ppm·h of BD exposure; cited from earlier work

Compound | range of AUC-AA [1] | AUC-AA [2] [nM·h/ μg AA per kg bw] | in vivo levels of AA (estimated) [3] | daily Hb adduct level increment per exposure dose ([4]; Human, AA-rich food 4 days, 11 μg AA/kg bw, adducts to N-terminal valine) | AUC-AA ([4]; Human, ca. 11 μg AA/kg bw and day through food, 4 days, n = 9, from Hb adducts) | AUC-AA ([4]; Humans, ca. 2.5 μg AA/kg bw daily through food, 28 days, n = 9, ref Vikström et al. (2011)) [nM·h/ μg AA per kg bw] | AUC-AA ([4]; Humans, single dose in drinking water 500, 1000 and 3000 µg AA/kg bw, n = 6 males, ref Fennell et al. (2005)) [nM·h/ μg AA per kg bw] | in vivo levels of AA (estimated) [5] [µM] | AUC-AA ([6]; Rat (male F344), 500 and 2000 μg AA/kg bw and day in drinking water, one week, n = 6, from Hb adducts) | AUC of AA ([6]; SD rat (male), subchronic intraperitoneal AA, Hb adducts on cysteine site) [nM·h per μg AA per kg bw] | AUC-AA ([6]; male F344 rats, single dose 0.1 mg AA/kg bw, Hb adducts, ref Tareke et al. (2006)) [nM·h/ μg AA per kg bw] | oxidation to GA, rat compared to human (times faster in rat) [7] | AUC-DEB calculated from measured Hb adducts levels [8] [nM·h/ppm·h BD] | AUC-DEB predicted (parallelogram approach) [9] [nM·h] | ratio for rat-to-human of AUC-DEB per AUC-EB [10] | AUC-DEB calculated from measured Hb adducts levels [11] [nM·h/ppm·h BD] | AUC-DEB predicted (parallelogram approach) [12] [nM·h] | AUC-DEB calculated from measured Hb adducts levels [13] [nM·h/ppm·h BD] | ratio for rat-to-human of AUC-DEB per AUC-EB [14] | AUC-DEB predicted (parallelogram approach) [15] [nM·h]
C=CC(N)=O [AA, Acrylamide] | 18–80 nM·h per μg AA per kg bw | 18 | about 100 nM | 1.4 pmol/g globin per μg AA/kg bw and day | 212 ± 56 nM·h/μg AA per kg bw and 212 nM·h/μg AA per kg bw | 120 | 246 | ~25 | 34 ± 3 nM·h/μg AA per kg bw and 34 nM·h/μg AA per kg bw | 28.2 | 23 | ca. 3 times |  |  |  |  |  |  |  | 
C1OC1C1CO1 (centres unmarked) [DEB, 1,2:3,4-diepoxbutane] |  |  |  |  |  |  |  |  |  |  |  |  | 1.37 | 1.26 | 2.2 | 0.023 | 0.078 | 38 | 4.3 | 41
